Results reported in ChEMBL document CHEMBL1201862, “PubChem BioAssay data set” (2004).
“And” between values parts separate entries of the source, which are not always exact repeats. Equal values may be shown once.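 Tested at 5 concentrations; 48 h exposure; 96-well plates; endpoints linearly interpolated, else capped at highest concentration. GI50 marks 50% less growth.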 The source made the active and inactive calls. Rule as the data show it: active = GI50 up to about 1.1 µM and inactive = higher.

What was measured:
Test in all cases: inhibition of tumour cell growth, NCI panel, 48 h
[1] = system: A498
[2] = system: CAKI-1
[3] = system: CCRF-CEM
[4] = system: COLO 205
[5] = system: EKVX
[6] = system: HCT-15
[7] = system: HL-60
[8] = system: HOP-62
[9] = system: HOP-92
[10] = system: HT-29
[11] = system: IGROV-1
[12] = system: K562
[13] = system: KM12
[14] = system: M14
[15] = system: MCF7
[16] = system: MDA-MB-231
[17] = system: MDA-MB-435
[18] = system: MOLT-4
[19] = system: NCI-H23
[20] = system: OVCAR-4
[21] = system: OVCAR-5
[22] = system: RXF 393
[23] = system: SF-268
[24] = system: SF-295
[25] = system: SF-539
[26] = system: SK-MEL-28
[27] = system: SK-MEL-2
[28] = system: SK-OV-3
[29] = system: SNB-19
[30] = system: SNB-75
[31] = system: SR
[32] = system: SW-620
[33] = system: T47D
[34] = system: TK-10
[35] = system: U-251
[36] = system: 786-0
[37] = system: A549
[38] = system: ACHN
[39] = system: DU-145
[40] = system: HCC 2998
[41] = system: HCT-116
[42] = system: Hs-578T
[43] = system: LOX IMVI
[44] = system: MDA-N
[45] = system: Malme-3M
[46] = system: NCI-H226
[47] = system: NCI-H460
[48] = system: NCI-H522
[49] = system: NCI/ADR-RES
[50] = system: OVCAR-3
[51] = system: OVCAR-8
[52] = system: PC-3
[53] = system: SK-MEL-5
[54] = system: SN12C
[55] = system: UACC-257
[56] = system: UACC-62
[57] = system: RPMI-8226
[58] = system: UO-31

Measured: GI50

Nc1nc(Nc2ccccc2)sc1C(=O)c1ccc(Cl)cc1
active: [2] 0.71 µM | [20] 0.748 µM
> 100 µM: [6]
inactive: [1] 2.4 µM | [3] > 100 µM | [4] > 100 µM | [5] > 58.9 µM | [7] > 100 µM | [8] 2.88 µM | [9] 3.39 µM | [10] > 100 µM | [11] 3.72 µM | [12] > 100 µM | [13] > 100 µM | [14] > 100 µM | [15] 4.39 µM | [16] 4.3 µM | [17] 1.3 µM | [18] 8.99 µM | [19] 8.17 µM | [21] > 100 µM | [22] 2.69 µM | [23] 1.35 µM | [24] 3.7 µM | [25] > 100 µM | [26] > 100 µM | [27] 15.1 µM | [28] 2.46 µM | [29] 3.24 µM | [30] 2.48 µM | [31] 1.36 µM | [32] 4.13 µM | [33] > 95.1 µM | [34] 5.12 µM | [35] 2.69 µM

O=C(Nc1ccc([N+](=O)[O-])cc1)c1ccc([N+](=O)[O-])cc1
inactive: [24] 85.9 µM and 50.2 µM | [30] 48.9 µM and 70.6 µM

CC1(C)OP(=O)(O)C=C1Sc1ccc([N+](=O)[O-])cc1[N+](=O)[O-]
> 100 µM: [6]
inactive: [36] > 100 µM | [1] > 100 µM | [37] > 100 µM | [38] > 100 µM | [2] > 100 µM | [4] > 100 µM | [39] > 100 µM | [5] > 100 µM | [40] > 100 µM | [41] > 100 µM | [7] > 100 µM | [8] > 100 µM | [9] > 100 µM | [10] 45.7 µM | [42] > 100 µM | [11] > 100 µM | [12] > 100 µM | [13] > 100 µM | [43] > 100 µM | [14] > 100 µM | [15] > 100 µM | [17] > 100 µM | [44] > 100 µM | [45] > 100 µM | [46] > 100 µM | [19] > 100 µM | [47] > 100 µM | [48] > 100 µM | [49] > 100 µM | [50] > 100 µM | [20] > 100 µM | [21] > 100 µM | [51] > 100 µM | [52] > 100 µM | [23] > 100 µM | [24] > 100 µM | [25] > 100 µM | [26] > 100 µM | [27] > 100 µM | [53] > 100 µM | [28] > 100 µM | [54] > 100 µM | [29] > 100 µM | [30] > 100 µM | [31] > 100 µM | [32] > 100 µM | [33] > 100 µM | [34] > 100 µM | [35] > 100 µM | [55] > 100 µM | [56] > 100 µM

COc1cc2c(c(OC)c1OC)-c1ccc(SC)cc1C(O)CC2 (stereo not given)
active: [36] < 0.01 µM | [37] < 0.01 µM | [38] < 0.01 µM | [2] 0.071 µM | [3] < 0.01 µM | [4] < 0.01 µM | [39] < 0.01 µM | [40] < 0.01 µM | [41] < 0.01 µM | [7] < 0.01 µM | [11] < 0.01 µM | [12] < 0.01 µM | [13] < 0.01 µM | [43] < 0.01 µM | [14] < 0.01 µM | [15] < 0.01 µM | [16] 0.394 µM | [17] < 0.01 µM | [44] 0.19 µM | [18] < 0.01 µM | [45] 0.0132 µM | [19] < 0.01 µM | [47] < 0.01 µM | [48] < 0.01 µM | [50] < 0.01 µM | [52] < 0.01 µM | [57] < 0.01 µM | [23] < 0.01 µM | [24] < 0.01 µM | [25] < 0.01 µM | [53] < 0.01 µM | [54] 0.427 µM | [29] < 0.01 µM | [30] < 0.01 µM | [31] < 0.01 µM | [32] < 0.01 µM | [56] < 0.01 µM
inactive: [1] 12.1 µM | [5] 2.54 µM | [9] > 100 µM | [20] 1.94 µM | [21] 14.6 µM | [26] 55.6 µM | [27] > 100 µM | [33] > 100 µM | [34] 41 µM
< 0.01 µM: [6]

CC(=C\c1ccccc1)/C=C(\C#N)C(N)=O
inactive: [36] > 10 µM | [1] > 10 µM | [38] > 10 µM | [2] > 10 µM | [4] > 10 µM | [39] > 10 µM | [5] > 10 µM | [40] > 10 µM | [8] > 10 µM | [10] > 10 µM | [42] > 10 µM | [11] > 10 µM | [13] > 10 µM | [43] > 10 µM | [14] > 10 µM | [15] > 10 µM | [16] > 10 µM | [17] > 10 µM | [44] > 10 µM | [45] > 10 µM | [46] > 10 µM | [47] > 10 µM | [48] > 10 µM | [49] > 10 µM | [50] > 10 µM | [21] > 10 µM | [51] > 10 µM | [52] > 10 µM | [22] > 10 µM | [23] > 10 µM | [24] > 10 µM | [25] > 10 µM | [26] > 10 µM | [27] > 10 µM | [53] > 10 µM | [28] > 10 µM | [54] > 10 µM | [30] > 10 µM | [32] > 10 µM | [33] > 10 µM | [34] > 10 µM | [35] > 10 µM | [58] > 10 µM
> 10 µM: [6]
